Data taken from PMC4884539 (Journal of molecular biology, 2016).

Conditions: pH 7.4

Ac- MNWESkGEwlRMRYGtmLSNGnM- NH2 [Design P2]
Solubility (in words): less soluble

Ac- RGEaWmYlKNNLSETmMsNmWGR- NH2 [AP6]
Solubility (in words): less soluble
